Experimental findings from ChEMBL document CHEMBL4673396, “Structural Basis for Targeting the Folded P-Loop Conformation of c-MET” (ACS Med Chem Lett, 2021) are described below.

The data set can be described thus: Lipophilicity, logD of the compound in octanol and water at pH 7.4 by shake-flask method. It is filed as physicochemical.

Each structure is given as a SMILES string.

The term logD denotes the decadic logarithm of the distribution of all forms, ionised or not, between an organic phase and buffer at a given pH. As to `c1ccc(Cc2c[nH]c3ncc(-c4cnn(C5CCNCC5)c4)cc23)cc1`, the logD came out at 2.31.

The compound `Fc1cccc(Cc2c[nH]c3ncc(-c4cnn(C5CCNCC5)c4)cc23)c1` had a logD of 2.4.

Compound `O=C1NCc2c(-c3cnc4[nH]cc(Cc5ccccc5)c4c3)c[nH]c21` registered a logD of 4.

`Fc1ccc(Cc2c[nH]c3ncc(-c4cnn(C5CCNCC5)c4)cc23)cc1` gave a logD of 2.4.

On to `Fc1ccccc1Cc1c[nH]c2ncc(-c3cnn(C4CCNCC4)c3)cc12`, for which the logD stood at 2.5.
